Where “and” joins values, the source holds several entries; their conditions need not be identical. Equal entries are not always repeated.
| SMILES | melting point |
| --- | --- |
| COc1ccc(Cl)c(Cl)c1Cl [1-methoxy-2,3,4-trichlorobenzene] | 70 °C |
| c1ccc2c3c([nH]c2c1)CCCC3 [1,2,3,4-tetrahydrocarbazole] | 119 °C |
| O=C(O)c1ccccc1Br [2-bromobenzoic acid] | 148 °C |
| CCC(C)N (stereo unspecified) [2-aminobutane] | -104 °C |
| CC(C)(C)Br [2-bromo-2-methylpropane] | -16 °C |
| NC(=O)c1ccccc1[N+](=O)[O-] [2-nitrobenzamide] | 176 °C |
| CCCC(C)Cl (stereo unspecified) [2-chloropentane] | -137 °C |
| CC12CCC3C(C1CCC2=O)C1(CC2CC(=O)CCC23C)OCCO1 (stereo unspecified) | 207 °C |
| Brc1cc(Br)c(Br)cc1Br [1,2,4,5-Tetrabromobenzene] | 182 °C |
| OCCN1CCCCC1C(c1ccccc1)c1ccccc1 (stereo unspecified) [diphemethoxidine] | 106 °C |
| Cc1ccccc1-c1ccccc1P(C(C)(C)C)C(C)(C)C [2-(di-tert-butylphosphino)-2'-methylbiphenyl] | 92 °C |
| O=S(=O)(NS(=O)(=O)C(F)(F)F)C(F)(F)F | 51.5 °C |
| Cc1cccc(O)c1C [2,3-dimethylphenol] [listing 1 of 2 here] | 75 °C and 72.5 °C |
| O=C(O)C(=O)CBr [bromopyruvic acid] | 78 °C |
| FC(F)(Cl)Cl [Dichloro(difluoro)methane] | -158 °C |
| CS(=O)(=O)Cl [methanesulfonyl chloride] | -33 °C |
| O=C(O)C(F)(F)C(F)(F)C(F)(F)C(F)(F)C(F)(F)C(F)(F)F [Tridecafluoroheptanoic acid] | 30 °C |
| NNC(=O)c1ccco1 [2-furohydrazide] | 80 °C |
| O=[N+]([O-])c1cc([N+](=O)[O-])c(C(Br)=Cc2ccccc2)cc1/C=C\c1ccccc1 | 175 °C |
| CC(C)C(C)C [2,3-Dimethylbutane] | -128 °C |
| Brc1ccc(Br)cc1 [1,4-Dibromobenzene] | 88 °C |
| SCc1ccccc1 [benzyl mercaptan] | -29 °C and -29.2 °C |

| SMILES | melting point |
| --- | --- |
| CC(=O)NC1C2CCC(C)(C1NC(C)=O)C2(C)C (stereo unspecified) | 250 °C |
| COc1ccc(Br)c(OC)c1 [1-bromo-2,4-dimethoxybenzene] | 26 °C |
| OB(O)c1ccc(C(F)(F)F)cc1Cl [2-chloro-4-(trifluoromethyl)benzeneboronic acid] | 111 °C |
| Nc1cc(F)c(F)cc1C(=O)O [2-amino-4,5-difluorobenzoic acid] | 182 °C |
| COc1ccc2c(C(=O)c3ccc(Cl)cc3)c(C)n(CC(=O)O)c2c1 [clometacin] | 242 °C |
| CC(=O)OC1CCC2(C)C(CC(=O)C3C4CCC(=O)C4(C)CCC32)C1 (stereo unspecified) [7,17-dioxoandrostan-3-yl acetate] | 165 °C |
| CCN(CC)c1ccccc1 [n,n-diethylaniline] | -38 °C |
| COc1cccc(C=O)c1OC [2,3-dimethoxybenzaldehyde] | 52 °C |
| O=C(O)c1ccc(Cl)cc1Cl [2,4-dichlorobenzoic acid] | 162 °C |
| O=[N+]([O-])c1cc(Cl)ccc1O [2-Nitro-4-chlorophenol] | 89 °C |
| CC(=O)Nc1ccc([N+](=O)[O-])cn1 [2-acetamido-5-nitropyridine] | 200 °C |
| Cn1ccnc1S [2-mercapto-1-methylimidazole] | 146 °C |
| Clc1ccc(Cl)cc1 [1,4-Dichlorobenzene] | 55 °C |
| Nc1ccc(Br)cc1 [p-bromoaniline] | 63 °C |
| CCCCCOCCCCC [1-(Pentyloxy)pentane] | -69 °C |
| Cc1cccc[n+]1[O-] [2-picoline n-oxide] | 48 °C |
| Cc1cccc(O)c1C [2,3-dimethylphenol] [listing 2 of 2 here] | 72 °C |
| Cc1cccc(C)c1C [1,2,3-trimethylbenzene] | -25 °C |
| O=Cc1ccc(-c2ccccc2)cc1 [biphenyl-4-carboxaldehyde] | 59 °C |
| C=CCC1(c2ccccc2)C(=O)NC(=O)NC1=O [5-allyl-5-phenylbarbiturate] | 158 °C |
| O=[N+]([O-])c1ccc(OCC(O)CO)cc1 (stereo unspecified) [1-(4-nitrophenyl)glycerol] | 96 °C |

Results, then the compound that gave them:

| melting point | SMILES |
| --- | --- |
| 150 °C | CCOC(=O)c1cc(O)c(O)c(O)c1 [ethyl 3,4,5-trihydroxybenzoate] |
| 253 °C | O=C(Nc1ccc(/C=C/c2ccc(NC(=O)c3ccccc3)cc2)cc1)c1ccccc1 [N,N'-[(E)-ethene-1,2-diyldibenzene-4,1-diyl]dibenzamide] |
| 1 °C | CCOC(=O)c1ccccc1O [ethyl salicylate] |
| 101 °C | CCN(CC)CCNc1ccc(CO)c2sc3ccccc3c(=O)c12 [hycanthone] |
| 169 °C | O=C(O)C(O)[C@H](O)C(=O)O (stereo in doubt) [D-tartaric acid] |
| 186 °C | CC1(C)[C@@H](C(=O)O)CC[C@@]1(C)C(=O)O [(1R,3S)-camphoric acid] |
| 350 °C | CC(C)(C)NC(=O)[C@@H]1CC2CCCCC2CN1C[C@@H](O)[C@H](Cc1ccccc1)NC(=O)[C@H](CC(N)=O)NC(=O)c1ccc2ccccc2n1 (stereo partly specified) [Saquinavir] |
| 81 °C | COC(=O)C1(C)C(C)=Nc2ccccc21 (stereo unspecified) [methyl 2,3-dimethyl-3H-indole-3-carboxylate] |
| 115 °C | Oc1cc(O)c(Cl)cc1Cl [4,6-dichlororesorcinol] |
| 135 °C | O=C(Nc1ccccc1)OC1C=CC=CCC1OC(=O)Nc1ccccc1 (stereo unspecified) [cyclohepta-3,5-diene-1,2-diyl bis(phenylcarbamate)] |
| 209 °C | OB(O)c1cccc(O)c1 [3-hydroxybenzeneboronic acid] |
| 172 °C | CC(=O)Nc1ccc(/C=C/c2ccc(NC(C)=O)cc2)cc1 [N,N'-[(E)-ethene-1,2-diyldibenzene-4,1-diyl]diacetamide] |
| -48 °C | Cc1cccc(Cl)c1 [3-chlorotoluene] |
| 128 °C | CCCNC(=O)NS(=O)(=O)c1ccc(Cl)cc1 [Chlorpropamide] |
| 180 °C | CC1(C)[C@@H]2CC[C@@]1(C)C(=O)C2 [camphor] |
| 53 °C | c1ccc(Nc2ccccc2)cc1 [N-Phenylaniline] |
| 251 °C | c1ccc(-c2c3ccccc3c(-c3ccccc3)c3ccccc23)cc1 [9,10-diphenylanthracene] |
| -48 °C | C=C(C)C(=O)OC [methyl methacrylate] |
| 174 °C | COC(=O)c1ccc2[nH]nnc2c1 [methyl 1h-benzotriazole-5-carboxylate] |
| 276 °C | C[C@]12C=CC(=O)C=C1CC[C@H]1[C@@H]3C[C@@H](O)[C@](O)(C(=O)CO)[C@@]3(C)C[C@H](O)[C@@]12F [Triamcinolone] |

| melting point | SMILES |
| --- | --- |
| 157 °C | O=C(O)c1cccc(Br)c1 [3-Bromobenzoic acid] |
| -3 °C | CCCCCC(=O)O [hexanoic_acid] |
| -95 °C | CCc1ccccc1 [ethylbenzene] |
| 270 °C and 275 °C | O=C1CCC(N2C(=O)c3ccccc3C2=O)C(=O)N1 (stereo unspecified) [thalidomide] |
| 102 °C | C(O)[C@@H](O)[C@@H](O)[C@H](O)CO [D-arabitol] |
| -55 °C | CCCCCN [Amylamine] |
| -21 °C | CCC(=O)O [propanoic_acid] |
| -88 °C | CCC(=O)OC [methyl propionate] |
| -14 °C | CCCCCCCCCCc1ccccc1 [Decylbenzene] |
| 272 °C | OB(O)c1ccc(Cl)c(Cl)c1 [3,4-dichlorobenzeneboronic acid] |
| 86 °C | c1ccc(Cc2ccc(-c3ccccc3)cc2)cc1 [4-benzylbiphenyl] |
| 104 °C | CC(=O)c1cnn(-c2ccccc2)c1C [4-acetyl-5-methyl-1-phenyl-1h-pyrazole] |
| 81 °C | CC(N)=O [Acetamide] |
| -96 °C | CC(C)c1ccccc1 [Isopropylbenzene] |
| 236 °C | Cc1ccnc(NS(=O)(=O)c2ccc(N)cc2)n1 [sulfamerazine] |
| 67 °C | CCCCc1ccc(/N=N/c2ccc(OCCC)cc2)cc1 [(E)-1-(4-butylphenyl)-2-(4-propoxyphenyl)diazene] |
| 52 °C | N#Cc1cccc(N)c1 [3-aminobenzonitrile] |
| 161 °C | O=C(O)/C(=C/c1cccc2ccccc12)c1ccccc1 [(2E)-3-naphthalen-1-yl-2-phenylprop-2-enoic acid] |
| 54 °C | CC(C)(C)CO [neopentyl alcohol] |
| 182 °C | Cc1cc(B(O)O)cnc1Cl [6-chloro-5-methylpyridine-3-boronic acid] |

| melting point | SMILES |
| --- | --- |
| 96 °C | CCOC(=O)Cc1c(C)n(C(=O)c2ccc(Cl)cc2)c2ccc(OC)cc12 [indomethacin ethyl ester] |
| 73 °C | O=C(Cl)c1ccc([N+](=O)[O-])cc1 [4-nitrobenzoyl chloride] |
| 152 °C | O=C(O)CC(S)C(=O)O (stereo unspecified) [mercaptosuccinic acid] |
| 61 °C | COC(=O)CS(C)(=O)=O [methyl methylsulfonylacetate] |
| 130 °C | CC(=O)OC1=c2ccccc2=NC1c1ccccn1 (stereo unspecified) [2-pyridin-2-yl-1H-indol-3-yl acetate] |
| 69 °C | CCCCOC(=O)c1ccc(O)cc1 [Butyl 4-hydroxybenzoate] |
| 136 °C | CNC(=O)N(C)c1nnc(C(F)(F)F)s1 [Thiazafluron] |
| 83 °C | COc1ccc(Cl)cc1N [5-chloro-o-anisidine] |
| -43 °C | CCOC(=O)OCC [Diethyl carbonate] |
| 92.5 °C | C=CCOc1ccc(CC(=O)O)cc1Cl [alclofenac] |
| -40 °C | CCCCCC(=O)OC(=O)CCCCC [hexanoic anhydride] |
| 134 °C | O=C(O)c1ccco1 [furoic acid] |
| -9 °C | CCCCCCC(=O)O [Heptanoic acid] |
| -20.8 °C | CCC(=O)O [Propionic acid] |
| 107 °C | CC(=O)c1cc(F)cc(F)c1O [3',5'-difluoro-2'-hydroxyacetophenone] |
| 85 °C | Clc1ccc2c(Cl)ccnc2c1 [4,7-dichloroquinoline] |
| 112 °C | CCOC(C)=NOc1ccc([N+](=O)[O-])cc1[N+](=O)[O-] [ethyl n-(2,4-dinitrophenoxy)acetimidate] |
| 136 °C | O=Cc1ccc(O)cc1O [b-Resorcylaldehyde] |
